Results as given in patent US9994548B2, “Phenyl-substituted nicotinic ligands, and methods of use thereof” (Georgetown University, priority 2011, dated 2018).
“Also recorded” adds a separate entry of the source.

Tests used:
human α4β2 nAChRs = target: T1, human α4β2 nAChRs (Homo sapiens, UniProt P17787+P43681); experiment: 86Rb+ efflux assay in stably transfected cells; type: cell-based
T1 construct: expressed in transfected cells
Protocol: (§1) The cell line expressing rat α3β4 nAChRs, KXα3β4R2, was established previously by stably transfecting HEK 293 cells with combinations of rat nAChR α3 and β4 subunit genes. The cell line expressing human α4β2 nAChRs, YXα4β2H1, were established recently (Tuan et al., 2012, manuscript in preparation). These cell lines were maintained in minimum essential medium (MEM) supplemented with 10% fetal bovine serum, 100 units/mL penicillin G, […] streptomycin and selective antibiotics at 37° C. with 5% CO2 in a humidified incubator. Tissue culture medium and antibiotics were obtained from Invitrogen Corporation (Carlsbad, Calif.), unless otherwise stated. Fetal bovine serum and horse serum were provided by Gemini Bio-Products (Woodland, Calif.).
(§2) Functional properties of compounds at nAChRs expressed in the transfected cells were measured using ^86Rb^+ efflux assays as described previously. In brief, cells were plated into 24-well plates coated with poly-D-lysine. The plated cells were grown at 37° C. for 18 to 24 hour to reach 85-95% confluence. The cells were then incubated in growth medium (0.5 mL/well) containing ^86Rb^+ (2 μCi/mL) for 4 hour at 37° C. The loading mixture was then aspirated, and the cells were washed four times with 1 mL buffer (15 mM HEPES, 140 mM NaCl, 2 mM KCl, 1 mM MgSO4, 1.8 mM CaCl2, 11 mM Glucose, pH 7.4). One mL of buffer with or without compounds to be tested was then added to each well. After incubation for 2 min, the assay buffer was collected for measurements of ^86Rb^+ released from the cells. Cells were then lysed by adding 1 mL of 100 mM NaOH to each well, and the lysate was collected for determination of the amount of ^86Rb^+ that was in the cells at the end of the efflux assay. Radioactivity of assay samples and lysates was measured by liquid scintillation counting. Total loading (cpm) was calculated as the sum of the assay sample and the lysate of each well. The amount of ^86Rb^+ efflux was expressed as a percentage of ^86Rb^+ loaded. […] For obtaining EC50 and Emax values, stimulation curves were constructed in which 8 different concentrations of a ligand were included in the assay. […] EC50, Emax and IC50(10′) values were determined by nonlinear least-squares regression analyses (GraphPad, San Diego, Calif.).
(§3) Functional properties of the new ligands were determined by ^86Rb^1 efflux assays in cells expressing α3β4 and α4β2 nAChR subtypes. Functional activity of each new ligand was measured in terms of its agonism, antagonism and desensitization ability.
(§4) Agonist activity of each of the ligands was tested at eight concentrations. […] The full concentration-effect curves generated potency (EC50) and efficacy (Emax) of each ligand.
(§5) Though the ^86Rb^+ efflux assays were the main methodology used to determine functional properties, whole-cell current measurements were also used to verify the key experiments.

rat α3β4 nAChRs = target: T2, rat α3β4 nAChRs (Rattus norvegicus, UniProt P04757+P12392); experiment: 86Rb+ efflux assay in stably transfected cells; type: cell-based; conditions: 86Rb+ efflux, rat α3β4
T2 construct: expressed in transfected cells; host or cells: HEK 293 (KXα3β4R2)
T2 sequence (P04757 26-499): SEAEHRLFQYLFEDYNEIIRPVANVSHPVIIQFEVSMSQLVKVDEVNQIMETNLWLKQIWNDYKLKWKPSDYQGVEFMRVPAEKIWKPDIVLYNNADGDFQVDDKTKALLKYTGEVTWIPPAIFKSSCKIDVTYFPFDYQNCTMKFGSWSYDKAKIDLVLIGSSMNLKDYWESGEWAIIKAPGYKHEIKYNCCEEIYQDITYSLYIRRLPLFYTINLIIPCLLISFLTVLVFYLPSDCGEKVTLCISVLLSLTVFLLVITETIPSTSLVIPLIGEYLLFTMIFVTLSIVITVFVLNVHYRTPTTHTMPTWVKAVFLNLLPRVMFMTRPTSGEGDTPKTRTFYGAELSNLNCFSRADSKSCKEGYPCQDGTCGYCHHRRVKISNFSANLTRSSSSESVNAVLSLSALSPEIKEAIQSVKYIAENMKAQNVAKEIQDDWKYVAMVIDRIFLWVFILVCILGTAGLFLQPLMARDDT
T2 sequence (P12392 21-495): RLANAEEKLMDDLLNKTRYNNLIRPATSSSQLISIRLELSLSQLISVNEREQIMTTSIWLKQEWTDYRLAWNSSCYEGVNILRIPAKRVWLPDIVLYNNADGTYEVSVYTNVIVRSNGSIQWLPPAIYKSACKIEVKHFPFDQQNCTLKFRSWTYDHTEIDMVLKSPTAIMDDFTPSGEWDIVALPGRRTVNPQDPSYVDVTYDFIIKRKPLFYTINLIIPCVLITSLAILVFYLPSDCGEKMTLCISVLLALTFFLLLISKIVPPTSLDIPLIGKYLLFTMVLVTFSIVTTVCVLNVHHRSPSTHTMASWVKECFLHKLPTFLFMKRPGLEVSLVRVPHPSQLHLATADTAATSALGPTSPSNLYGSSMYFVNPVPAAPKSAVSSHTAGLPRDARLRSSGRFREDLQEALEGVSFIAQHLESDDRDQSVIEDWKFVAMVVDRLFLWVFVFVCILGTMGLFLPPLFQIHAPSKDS
Protocol: as §1, §2, §3, §4, §5

[1] = tested on: nicotine self-administration; experiment: Nicotine self-administration in rats; type: in vivo, rat
Protocol: The studies were conducted in accordance with the regulations outlined by the Duke University Animal Care and Use Committee. The rats housed in approved standard laboratory conditions in a Duke University vivarium facility near the testing room to minimize stress induced by transporting the rats. The rats were kept on a 12:12 reverse day/night cycle, so that they were in their active phase during behavioral testing. The rats in the drug iv self-administration studies were singly housed to prevent them from damaging each other's catheters. The rats in the locomotor activity studies were housed in groups of 2-3. All rats were allowed access to water at all times; the rats in the nicotine-self-administration study were fed daily approximately 30 minutes after completing the sessions while those in the locomotor activity study had continuous access to food.
VMY-2-95 was injected s.c. 10 minutes before testing in a volume of 1 mL/kg of saline. The doses (0, 0.3, 1 and 3 mg/kg) were given in a counterbalanced order with at least two days between successive injections.
Each infusion was immediately followed by a one-minute period in which the cue lights went out, the house light came on and responses were recorded but not reinforced.
After food training, the animals were surgically implanted with jugular catheters. […] Alpha of p<0.05 (two-tailed) was used as the threshold for significance.

[2] = tested on: 41 other targets, including many CNS receptors and transporters; experiment: NIMH PDSP binding assays for targets other than nAChRs
Protocol: (§6) All binding assays for targets other than nAChRs were performed by the National Institute of Mental Health's Psychoactive Drug Screening Program (PDSP) supported by NIMH grant HHSN-271-2008-00025-C(PI: Bryan Roth). For experimental details (Ki determinations, receptor binding profiles, functional data, MDR1 data, etc. as appropriate) refer to the PDSP web site http://pdsp.med.unc.edu/.
To determine affinities of the lead compound, VMY-2-95, for targets other than neuronal nAChRs, we tested VMY-2-95 in binding assays using 41 other targets, including many CNS receptors and transporters. […] The Ki values of VMY-2-95 at these 9 targets were determined by performing secondary binding assays using a series of concentrations of VMY-2-95. […] Furthermore, the binding affinity of VMY-2-95 for α4β2 nAChRs is at least 3,000 times higher than that for any of those 9 targets.

5-HT3 receptors = target: T3, 5-HT3 receptors (Homo sapiens, UniProt P46098); experiment: NIMH PDSP primary binding assay; conditions: 10 μM
T3 sequence (P46098 24-478): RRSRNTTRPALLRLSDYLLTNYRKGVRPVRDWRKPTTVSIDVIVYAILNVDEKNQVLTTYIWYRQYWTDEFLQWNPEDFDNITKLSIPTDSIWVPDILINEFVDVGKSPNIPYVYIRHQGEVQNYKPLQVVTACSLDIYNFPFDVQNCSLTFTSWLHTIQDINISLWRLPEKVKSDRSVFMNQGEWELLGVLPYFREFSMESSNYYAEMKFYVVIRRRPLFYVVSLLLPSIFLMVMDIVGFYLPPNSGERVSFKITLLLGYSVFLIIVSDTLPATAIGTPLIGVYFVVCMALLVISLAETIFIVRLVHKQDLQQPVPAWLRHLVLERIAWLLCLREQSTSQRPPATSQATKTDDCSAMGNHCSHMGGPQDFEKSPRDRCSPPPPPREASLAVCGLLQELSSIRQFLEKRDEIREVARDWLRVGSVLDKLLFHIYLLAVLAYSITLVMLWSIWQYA
Protocol: as §6
The compound either is not a “hit” in primary binding assays, or showing at least 3,000-fold lower binding affinities than that for α4β2 nAChRs in secondary binding assays (FIG. 19,).

[3] = 10 μM, 41 targets, primary binding assays

T1 sequence (P43681 29-627 limits assumed): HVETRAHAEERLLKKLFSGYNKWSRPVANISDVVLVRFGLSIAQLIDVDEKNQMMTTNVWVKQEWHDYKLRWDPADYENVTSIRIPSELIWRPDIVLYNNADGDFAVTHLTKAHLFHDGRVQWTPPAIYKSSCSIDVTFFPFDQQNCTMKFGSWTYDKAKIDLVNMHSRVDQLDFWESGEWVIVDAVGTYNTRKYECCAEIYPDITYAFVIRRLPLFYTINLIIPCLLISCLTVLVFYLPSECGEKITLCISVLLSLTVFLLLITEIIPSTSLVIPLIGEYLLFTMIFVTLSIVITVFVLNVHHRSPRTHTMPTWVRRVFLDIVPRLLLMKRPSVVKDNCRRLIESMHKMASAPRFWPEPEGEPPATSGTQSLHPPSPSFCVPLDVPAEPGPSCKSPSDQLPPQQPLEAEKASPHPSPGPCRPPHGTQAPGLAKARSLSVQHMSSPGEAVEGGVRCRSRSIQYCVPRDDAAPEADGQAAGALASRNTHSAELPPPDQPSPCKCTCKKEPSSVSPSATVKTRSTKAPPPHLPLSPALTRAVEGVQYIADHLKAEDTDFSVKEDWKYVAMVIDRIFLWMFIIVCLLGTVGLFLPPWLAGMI
T1 sequence (P17787 26-502): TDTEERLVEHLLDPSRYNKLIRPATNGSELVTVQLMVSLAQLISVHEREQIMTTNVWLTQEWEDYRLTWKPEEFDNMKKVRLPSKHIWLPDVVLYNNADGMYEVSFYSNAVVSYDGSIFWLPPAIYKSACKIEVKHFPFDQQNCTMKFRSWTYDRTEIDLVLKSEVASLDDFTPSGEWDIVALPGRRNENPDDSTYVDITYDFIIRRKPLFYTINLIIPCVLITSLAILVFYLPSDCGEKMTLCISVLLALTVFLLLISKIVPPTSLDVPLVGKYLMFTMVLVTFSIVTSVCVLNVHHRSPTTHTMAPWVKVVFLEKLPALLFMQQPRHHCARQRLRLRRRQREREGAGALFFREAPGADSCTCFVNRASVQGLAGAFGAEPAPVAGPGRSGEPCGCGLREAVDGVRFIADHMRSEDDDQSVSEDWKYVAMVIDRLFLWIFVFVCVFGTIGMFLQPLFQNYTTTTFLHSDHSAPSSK

## C(#Cc1cncc(OC[C@@H]2CCN2)c1)c1ccccc1 [VMY-2-95, (S)-3-(azetidin-2-ylmethoxy)-5-(phenylethynyl)pyridine]
Human α4β2 nAChRs
  EC50: 8.6 nM
Human α4β2 nAChRs; 86Rb+ efflux, human α4β2
  agonist activity at α4β2 receptors: clear agonist activity
Human α4β2 nAChRs; 10 min pre-treatment before 100 μM (−)-nicotine, read-out: IC50(10′) α4β2 (desensitization potency)
  IC50: 16 nM
Human α4β2 nAChRs; preincubated with the cells for 10 min
  inhibition of nicotine activation of α4β2 receptors: inhibited
Rat α3β4 nAChRs
  agonist activity at α3β4 nAChRs: did not show any detectable agonist activity; also recorded: does not show agonist activity
[1]; 3 mg/kg s.c., 10 min before session, p<0.025
  nicotine self-administration (number of nicotine infusions) vs saline vehicle: significantly reduces; also recorded: significant (p<0.025) decrease
[1]; 0.3, 1, 3 mg/kg s.c., F(3,42)=3.36, p<0.05
  intravenous nicotine self-administration, overall dose effect: decreased intravenous nicotine self-administration in a dose-dependent manner
[1]; lower doses 0.3 and 1 mg/kg s.c.
  nicotine self-administration vs saline vehicle: did not produce significant decreases; also recorded: did not produce significant effects
[2]; [3]
  number of targets "hit" (more than 50% inhibition of binding): 9
  number of targets "miss" (less than 50% inhibition of binding): 32
[2]; Ki from secondary binding assays
  binding affinity for α4β2 nAChRs relative to the 9 hit targets: at least 3,000 times
5-HT3 receptors
  primary binding result at 5-HT3 receptors: not a “hit”
